Data as given in PMC5556071, “ATR inhibition facilitates targeting of leukemia dependence on convergent nucleotide biosynthetic pathways” (Nature Communications, 2017).
Several values for one entry are separate records, joined by “and”; a condition that tells them apart may be missing. Equal values may be shown once.

Test system: CEM cells
Experiment: Targeted LC-MS/MS-MRM of de novo and salvage dCTP biosynthesis (nucleotide pools and newly replicated DNA)
Type: cell-based, human
Experimental: Cells were transferred into RPMI-1640 without glucose and supplemented with 10% dialyzed FBS (Gibco) containing the following labeled substrates: precursors for de novo [U-^13C6]glucose (Sigma-Aldrich, 389374) at 11 mM; precursors for purine salvage [U-^13C10,^15N5]dA (Cambridge Isotopes, CIL 3896), [^15N5]dA (Cambridge Isotopes, NLM-3895) and [^15N5]dG (Cambridge Isotopes, NLM-3899) at 5 µM or as indicated; and precursors for pyrimidine salvage: [U-^13C9,^15N3]dC (Silantes, 124603602) and [U-^13C10,^15N2]dT (Cambridge Isotopes, CNLM-3902) at 5 µM and [^15N2]orotate (Cambridge Isotopes, NLM-1048) at indicated concentrations. The cells were incubated for 12 h or as indicated before sample collection and processing.
The rates of dCTP incorporation into the DNA were determined using linear regression with procedure GLM in SAS (v. 9.4). DNA % label was transformed using a shifted log addition of 1 due to the presence of zeros in the data set. Rates were calculated using the slope of the regression line for the log transformed data and are presented in the table with the associated standard errors, along with the ratio between the rate of incorporation into DNA by the de novo and salvage pathways (Table 1).
Cell cycle synchronization. Cells were treated with a CDK4/6 inhibitor, Pablociclib or PD-0332991 (Selleckchem, S1116) for 18 h to synchronize them in the G1 phase. Subsequently, cells were washed twice with PBS containing 2% FBS (Omega Scientific) and released into fresh media. […]
Clinical Microarray Core on an Illumina HiSeq3000 using the SeqCap EZ Exome Enrichment Kit v3.0 (Roche).
Reads were mapped to UCSC hg19 (bwa-mem), deduplicaed (PicardTools), and subjected to base quality score recalibration and realignment around known indels according to the Broad Institute Genome Analysis Toolkit (GATK) Best Practices v3.0. Variants in genes associated with nucleotide biosynthesis were identified using the GATK HaplotypeCaller, and annotated with Oncotator (http://portals.broadinstitute.org/oncotator/). dNTP sample processing. 0.5 – 1 x 10^6 cells were collected into 1.5 mL microcentrifuge tubes and centrifuged (450 x g, 4 min, 4 °C). The supernatant was carefully aspirated and the cells were washed twice with 1 mL of cold PBS, followed each time by centrifugation (450 x g, 4 min 4 °C). The PBS were aspirated.
Thereafter, the pellets were treated with 10 µL of 10% trifluoroacetic acid with internal standards (1 µM […]
s, and incubated on ice for 10 min. 40 µL of 500 mM ammonium acetate, pH = 9.3, with the same internal standard (1 µM [15N3]dCMP and [15N3]dCTP) was then added and the samples were vigorously vortexed again for 30 s. The samples were centrifuged (14,000 x g, 10 min, 4 °C) to remove cell debris. The supernatants (~ 40 µL) were transferred into HPLC injector vials. Stock solutions (10 mM) of rCTP, rCDP, dCMP, dCDP, and dCTP (Sigma Aldrich) were prepared individually in water, and stored at –20 °C before use to generate calibration standards. Calibration standards were prepared and mixed together in water with internal standards (1 µM [15N3]dCMP and [15N3]dCTP) to make working stock concentrations in 100 nM – 100 µM range.
Calibration standards were diluted 10-fold into the same nucleotide extraction solution of 10% TFA/500 mM ammonium acetate (1:4, v/v) with internal standards (1 µM [15N3]dCMP and [15N3]dCTP) to give a final concentration in 10 nM – 10 µM. Nucleotide and calibration samples were processed together to minimize […]
DNA sample processing. Genomic DNA from 0.5 – 1 x 10^4 cells was extracted using the Quick-gDNA MiniPrep kit (Zymo Research, D3021) and hydrolyzed to nucleosides using the DNA Degradase Plus kit (Zymo Research, E2021), following manufacturer-supplied instructions. In the final step of DNA extraction, 50 µL of […]
water was used to elute the DNA into 1.5 mL microcentrifuge tubes. A nuclease solution (5 µL; 10X buffer/DNA Degradase Plus™/water, 2.5/1/1.5, v/v/v) was added to 20 µL of the eluted genomic DNA in an HPLC injector […]
vial. […]

[1] = CEM 12 h, 1 uM VE-822, 1 uM DI-82, 500 nM 3-AP, #1-#3

NC(=S)N/N=C/c1ncccc1N [3-AP]
% sum abundance, de novo DNA-C, mass increase in nucleobase +0, in deoxyribose +3 [1]: 0.0554% and 0.0456% and 0.04%
% sum abundance, de novo DNA-C, mass increase in nucleobase +0, in deoxyribose +4 [1]: 0.02% and 0.0358% and 0.0465%
% sum abundance, de novo DNA-C, mass increase in nucleobase +0, in deoxyribose +5 [1]: 0.55% and 0.53% and 0.50%
% sum abundance, de novo DNA-C, mass increase in nucleobase +1, in deoxyribose +3 [1]: 0.00%
% sum abundance, de novo DNA-C, mass increase in nucleobase +1, in deoxyribose +4 [1]: 0.00%
% sum abundance, de novo DNA-C, mass increase in nucleobase +1, in deoxyribose +5 [1]: 0.07% and 0.0542% and 0.0459%
% sum abundance, de novo DNA-C, mass increase in nucleobase +2, in deoxyribose +4 [1]: 0.00%
% sum abundance, de novo DNA-C, mass increase in nucleobase +2, in deoxyribose +5 [1]: 0.0465% and 0.04% and 0.032%
% sum abundance, de novo DNA-C, mass increase in nucleobase +3, in deoxyribose +4 [1]: 0.00%
% sum abundance, de novo DNA-C, mass increase in nucleobase +3, in deoxyribose +5 [1]: 0.00%
% sum abundance, de novo DNA-C, mass increase in nucleobase +4, in deoxyribose +4 [1]: 0.00%
% sum abundance, de novo DNA-C, mass increase in nucleobase +4, in deoxyribose +5 [1]: 0.00%
% sum abundance, salvage DNA-C, mass increase in nucleobase +5, in deoxyribose +0 [1]: 0.00%
% sum abundance, salvage DNA-C, mass increase in nucleobase +5, in deoxyribose +4 [1]: 0.00%
% sum abundance, salvage DNA-C, mass increase in nucleobase +5, in deoxyribose +5 [1]: 0.00%
% sum abundance, salvage DNA-C, mass increase in nucleobase +6, in deoxyribose +0 [1]: 0.00%
% sum abundance, salvage DNA-C, mass increase in nucleobase +6, in deoxyribose +4 [1]: 0.00%
% sum abundance, salvage DNA-C, mass increase in nucleobase +6, in deoxyribose +5 [1]: 0.39% and 0.40%
% sum abundance, salvage DNA-C, mass increase in nucleobase +7, in deoxyribose +0 [1]: 0.00%
% sum abundance, salvage DNA-C, mass increase in nucleobase +7, in deoxyribose +4 [1]: 0.23% and 0.25%
% sum abundance, salvage DNA-C, mass increase in nucleobase +7, in deoxyribose +5 [1]: 4.69% and 4.96% and 4.68%
% sum abundance, unlabeled DNA-C, mass increase in nucleobase +0, in deoxyribose +0 [1]: 83.63% and 83.39% and 83.92%
% sum abundance, unlabeled DNA-C, mass increase in nucleobase +0, in deoxyribose +1 [1]: 4.68% and 4.72% and 4.61%
% sum abundance, unlabeled DNA-C, mass increase in nucleobase +0, in deoxyribose +2 [1]: 0.67% and 0.60% and 0.58%
% sum abundance, unlabeled DNA-C, mass increase in nucleobase +1, in deoxyribose +0 [1]: 4.40% and 4.42% and 4.39%
% sum abundance, unlabeled DNA-C, mass increase in nucleobase +1, in deoxyribose +1 [1]: 0.26%
% sum abundance, unlabeled DNA-C, mass increase in nucleobase +1, in deoxyribose +2 [1]: 0.00%
% sum abundance, unlabeled DNA-C, mass increase in nucleobase +2, in deoxyribose +0 [1]: 0.31% and 0.29% and 0.26%
% sum abundance, unlabeled DNA-C, mass increase in nucleobase +2, in deoxyribose +1 [1]: 0.00%
% sum abundance, unlabeled DNA-C, mass increase in nucleobase +2, in deoxyribose +2 [1]: 0.00%
% sum abundance, unlabeled DNA-C, mass increase in nucleobase +3, in deoxyribose +0 [1]: 0.00%
% sum abundance, unlabeled DNA-C, mass increase in nucleobase +3, in deoxyribose +1 [1]: 0.00%
% sum abundance, unlabeled DNA-C, mass increase in nucleobase +4, in deoxyribose +0 [1]: 0.00%
increase of incorporation of salvage-produced dCTP into DNA (CEM, 500 nM 3-AP, 12 h): > 1.5 fold
rCTP and rCDP pools (CEM, 500 nM 3-AP, 12 h): doubled
reduction in the incorporation of de novo produced dCTP into DNA (CEM, 500 nM 3-AP, 12 h): ~ 19 fold
salvage dC nucleotide pools (CEM, 500 nM 3-AP, 12 h): doubled
increase of salvage contributions to the dCMP, dCDP and dCTP pools (asynchronous CEM, 12 h): approximately twofold
